Results from US20030045501A1, “Use of atazanavir in HIV therapy” (priority 2001, published 2003).

Tests used:
[1] = saquinavir dosed at 1200 mg TID; at steady-state; cited from earlier work
[2] = human, in vivo
Text: In clinical studies carried out on 98 HIV-positive patients who have taken atazanavir for one year, no increases in plasma LDL-cholesterol or triglycerides were observed. Thus, atazanavir is particularly useful in the treatment of HIV-positive patients who have elevated plasma LDL-cholesterol and/or triglyceride levels. It can be used as monotherapy or as part of a “cocktail” which would include other antiretroviral drugs such as reverse transcriptase inhibitors, non-nucleoside reverse transcriptase inhibitors, and other HIV protease inhibitors.

[3] = test system: HIV; test: Phase II randomized study atazanavir vs nelfinavir: anti-HIV activity (viral load); format: in vivo; conditions: atazanavir 200, 400 or 500 mg once daily, monotherapy two weeks then with stavudine and didanosine; treatment-naive patients
Experimental: In a Phase II randomized study, the safety and anti-HIV activity of three once daily doses of atazanavir (200 mg, 400 mg and 500 mg) was compared with 750 mg of the protease inhibitor, nelfinavir dosed three times daily. Twenty-one patients received nelfinavir in combination with stavudine and didanosine, while atazanavir was administered both as monotherapy (for two weeks) and then in combination with stavudine and didanosine to 78 treatment-naive (no prior anti-HIV therapy) patients with HIV viral loads >2000 copies per milliliter (c/mL).

[4] = set-up: species or system human; conditions: in vivo
Experimental: (§1) In another two-stage, randomized three-arm Phase II study, the antiviral activity and metabolic effects of atazanavir at two different doses (400 mg or 600 mg) was compared to ritonavir, each in combination with saquinavir over 48 weeks. The protease inhibitors were administered in combination with two nucleoside reverse transcriptase inhibitors selected from didanosine, stavudine, lamivudine or zidovudine. The selection of reverse transcriptase inhibitors (used in combination as didanosine+stavudine, stavudine+lamivudine, didanosine+zidovudine, or lamivudine+zidovudine) was based on the patient's phenotypic sensitivity and the physician's choice at the time of administration. The regimens were as follows: […]
(§2) atazanavir 400 mg QD+saquinavir 1200 mg QD+2 nucleoside reverse transcriptase inhibitors atazanavir 600 mg QD+saquinavir 1200 mg QD+2 nucleoside reverse transcriptase inhibitors ritonavir 400 mg BID+saquinavir 400 mg BID+2 nucleoside reverse transcriptase inhibitors Patients were anti-retroviral-experienced with a treatment history of receiving a minimum of 24 weeks of a protease inhibitor-containing or non-nucleoside reverse transcriptase inhibitor-containing combination regimen. Stage 1 was to randomize approximately 75 subjects to assess the safety and antiviral activity of the regimens. […]

[5] = test system: HIV; test: Phase II three-arm study atazanavir vs ritonavir, each with saquinavir + 2 NRTIs: antiviral activity; format: in vivo; conditions: atazanavir groups vs ritonavir
Experimental: as §1, §2

[6] = test system: CYP3A; test: Inhibition of cytochrome P450 3A enzyme; format: biochemical
Text: Similarly, appropriate dosing of other HIV protease inhibitors to be used in combination with atazanavir can be calculated.

increases in plasma LDL-cholesterol [2]	increases in plasma triglycerides [2]	LDL-cholesterol elevation over baseline [4]	Ki [6]	SMILES	increase of the exposure of saquinavir [1]	reductions in viral load compared to the nelfinavir-treated patients [3]	antiviral efficacy through week 12, compared to ritonavir [5]
–	–	–	–	Cc1c(O)cccc1C(=O)N[C@@H](CSc1ccccc1)[C@H](O)CN1C[C@H]2CCCC[C@H]2C[C@H]1C(=O)NC(C)(C)C [nelfinavir]	392%	–	–
no increases	no increases	not elevated	2.4 µM	COC(=O)N[C@H](C(=O)N[C@@H](Cc1ccccc1)[C@@H](O)CN(Cc1ccc(-c2ccccn2)cc1)NC(=O)[C@@H](NC(=O)OC)C(C)(C)C)C(C)(C)C [atazanavir]	–	at least comparable	similar
